Entries after “also recorded” stand apart in the source; their conditions may differ.
Legend:
[1] = test system: GD2 CAR-bearing T cells; assay: Live cell confocal microscopy of lytic granule positioning (LysoTracker Red); format: cell-based; conditions: ciliobrevin D 50 μM vs DMSO, straight out of culture or 0.5 h post cytokine (IL-7, IL-15) re-addition
Description: FIG. 20. […] Live cell confocal microscopy of GD2 CAR-bearing T cells treated with DMSO or ciliobrevin D (50 μM). Lytic granule positioning was tracked using LysoTracker Red. […] The culture medium for GD2 CAR T cells contains IL-7 and IL-15. […] Quantitative analyses of lytic granule distance from the MTOC are shown as a feature of the degree of granule convergence in GD2 CAR-bearing T cells.
Specifically, the inventors have shown convergence in CD19 CAR T cells, CD19 CAR NK cells, PSCA CAR T cells, GD2 CAR NKT cells, HER2 CART cells, and glypican CAR T cells (FIG. 15A). Using a measurement of mean granule distance from the MTOC, CAR cells have varying degrees of converged lytic granules (FIG. 15B).

[2] = test system: GD2 CAR-bearing T cells; assay: Flow cytometry-based cytotoxicity assay, 48 h, bystander killing; format: cell-based; conditions: ciliobrevin D 90 μM, vs DMSO
Description: FIG. 23. Bystander killing with ciliobrevin D in the presence of GD2 CAR-bearing T cells. Flow cytometry-based cytotoxicity assay of GD2 CAR-bearing T cells treated with ciliobrevin D (90 μM) or DMSO control. BV173 cells were used as non-susceptible bystander cells to measure the degree of non-specific killing (Left). Daoy-CD19 cells were used as activating target cells (Right). After 48 h incubation, percent cell lysis and total cell number were measured using SYTOX Blue viability dye and flow cytometer cell counting beads, respectively. […] The non-specific lysis of BV173 cells increased after ciliobrevin D treatment while specific lysis of Daoy-CD19 cells was not affected.
(§1) Similarly, compared to DMSO, ciliobrevin D-treated CD19 CAR NK cells lyse approximately 24%, 39% and 40% more bystander cells at the concentration of 12.5, 25 and 50 μM, respectively (FIG. 22). […] FIG. 23 and FIG. 24 are time-lapse images of videos of control ([…]) and ciliobrevin D-treated ([…]) CD19 CAR T cells. […] In the control group, however, lytic granules converge immediately upon interacting with the target cell and remain tightly clustered until target is killed by the CD19 CAR T cell as indicated by uptake of the SYTOX Blue viability dye.

[3] = test system: CD19 CAR NK cells; assay: Standard 4-hour 51Cr cytotoxicity assay, bystander killing; format: cell-based; conditions: for more bystander cells lysed compared to DMSO: wildtype Daoy bystanders, Daoy-CD19 inciting targets
Description: FIG. 22. Bystander killing with increasing amounts of ciliobrevin D in the presence of CD19 CAR-bearing NK cells. Standard 4-hour ^51Cr cytotoxicity assay of CD19 CAR NK cells treated with ciliobrevin D (12.5, 25, and 50 μM) or DMSO control. Daoy-CD19 cells were used as inciting target cells to activate CD19 CAR-bearing NK cells. Wildtype Daoy cells were used as innocent bystander cells to measure the degree of collateral damage caused by non-directional degranulation.
as §1

[4] = test system: CD19 CAR T cells; assay: as above; format: cell-based; conditions: for increase of bystander killing compared to DMSO control: 10:1 effector to target ratio, BV173 bystanders, Daoy-CD19 inciting targets, representative donor
Description: FIG. 21. Bystander killing with increasing amounts of ciliobrevin D in the presence of CD19 CAR-bearing T cells. Standard 4-hour ^51Cr cytotoxicity assay of CD19 CAR T cells treated with ciliobrevin D (25, 50 and 100 μM) or DMSO control. CD19-expressing Daoy cells (Daoy-CD19, a medulloblastoma cell line engineered to express CD19) were used as inciting target cells to trigger the activation of CD19 CAR-bearing T cells. BV173 cells, a human acute lymphoblastic leukemia cell line, were used as non-susceptible bystander cells to measure the degree of collateral damage caused by non-directional degranulation.
as §1

[5] = test system: NK92 cells; assay: Flow cytometry-based degranulation assay (CD107a); format: cell-based, human; conditions: NK92 with K562 targets, 2 hours, vs DMSO
Description: (§2) FIGS. 13A-13E. The effect of ciliobrevin D on degranulation and the increase of bystander killing by NK cells. Flow cytometry-based degranulation assay of NK cells treated with ciliobrevin D or DMSO as vehicle control. 721.221 cells were used as targets for YTS cells and K562 cells were used as targets for NK92 and eNK cells. DMSO or ciliobrevin D-treated NK cells were mixed with their respective target cells and co-cultured at 37° C. for 2 hours in the presence of anti-CD107a antibody, GolgiStop (BD) and analyzed using flow cytometry. Numbers in the representative flow cytometry plots indicate the percentage of CD107a positive eNK (13A), YTS (13B), or NK92 (13C) cells. Standard 4-hour 51Cr cytotoxicity assay of NK cells treated with ciliobrevin D (100 μM) or DMSO control. NK resistant Raji cells were used as innocent bystander cells. […] Bystander killing of Raji cells by YTS (13D, red) and NK92 (13E, red) cells both increased with ciliobrevin D treatment. Representative experiments from three independent experiments for YTS and NK92 cells were shown.
(§3) YTS-CD16, NK92-CD16 and eNK cells were labeled with CellTrace CFSE for 10 min at room temperature. S2 and S2-IC1 cells were pre-incubated with anti-S2 polyclonal IgG antibody at a final dilution of 1:1000 for 30 min at room temperature and washed three times. S2, S2-IgG, S2-IC1 and S2-IC1-IgG cells were then labeled with cell proliferation dye eFluor 670 for 5 min at room temperature. […] and 2×10^5 target cells were mixed in 200 μl complete R10 and incubated for 2 hours at 37° C. in the presence of anti-CD107a antibody and GolgiStop (BD), fixed with 1% paraformaldehyde in PBS and analyzed as described in flow-based conjugation assay.
(§4) Where applicable, YTS, NK92 and eNK cells were pretreated with […] ciliobrevin D (Millipore) for 30 min then washed. DMSO was used as the vehicle control for all inhibitor experiments. The inhibitor was also added into the co-culture with target cells.

[6] = test system: YTS cells; assay: Flow cytometry-based degranulation assay (CD107a); format: cell-based, human; conditions: YTS with 721.221 targets, 2 hours, vs DMSO
Description: as §2, §3, §4

[7] = test system: eNK cells; assay: Flow cytometry-based degranulation assay (CD107a); format: cell-based, human; conditions: eNK with K562 targets, 2 hours, vs DMSO
Description: as §2, §3, §4

N#CC(C(=O)c1ccc(Cl)cc1Cl)=C1NC(=O)c2ccc(Cl)cc2N1 [ciliobrevin D, 2-(7-chloro-4-oxo-3,4-dihydroquinazolin-2(1H)-ylidene)-3-(2,4-dichlorophenyl)-3-oxopropanenitrile]
stimulation-induced lytic granule convergence [1]: blocks stimulation-induced convergence
stimulation-induced lytic granule convergence ([1]; listed as Ciliobrevin D): dispersed lytic granules
specific lysis of Daoy-CD19 target cells ([2]; 48 h incubation): remains similar to the DMSO control; also recorded: not affected
decrease of total number of BV173 (bystander) cells ([2]; after 48 h incubation): ~20%
total number of Daoy-CD19 (target) cells ([2]; after 48 h incubation): does not change; also recorded: remained similar to the DMSO control
more bystander cells lysed compared to DMSO ([3]; 12.5 μM): approximately 24%
more bystander cells lysed compared to DMSO ([3]; 25 μM): ~39%
more bystander cells lysed compared to DMSO ([3]; 50 μM): ~40%
non-specific lysis of Daoy cells ([3]; 12.5, 25 and 50 μM vs DMSO): dose-dependent increases
increase of bystander killing compared to DMSO control ([4]; 25 μM): approximately 48%
increase of bystander killing compared to DMSO control ([4]; 50 μM): ~71%
increase of bystander killing compared to DMSO control ([4]; 100 μM): ~90%
non-specific lysis of BV173 cells ([4]; 25, 50 and 100 μM, each effector to target ratio, vs DMSO): dose-dependent increases
proportion of cells that degranulated (CD107a positive) [5]: decreased
proportion of cells that degranulated (CD107a positive) [6]: decreased
proportion of cells that degranulated (CD107a positive) [7]: increased
